# Assay results published in patent publication US9376418B2, “Substituted pyridine spleen tyrosine kinase (SYK) inhibitors” (Merck Sharp & Dohme Corp., priority 2012, dated 2016).
# Target: T1, recombinant human GST-SYK (Homo sapiens, UniProt P43405)
# T1 construct: purchased Carna Biosciences 08-176
# Experiment: Homogeneous Time-Resolved Fluorescence (HTRF) assay for the recombinant human Syk enzyme
# Assay type: biochemical
# Details: HTRF assay, recombinant human GST-SYK; IC50 given as class symbols; read-out: rhSYK Activity
# Experimental: Homogeneous Time-Resolved Fluorescence (HTRF) Assay for the Recombinant Human Syk Enzyme
# A recombinant GST-hSYK fusion protein was used to measure potency of compounds to inhibit human Syk activity. The recombinant human GST-SYK (Carna Biosciences #08-176) ([…]) was incubated with various concentrations of the inhibitor diluted in DMSO (0.1% final concentration) for 10 minutes at room temperature in 15 mM Tris-HCl (pH 7.5), 0.01% tween 20, 2 mM DTT in 384 well plate format. To initiate the reaction the biotinylated substrate peptide (250 nM final concentration) that contains the phosphorylation site for Syk was added with magnesium (5 mM final concentration) and ATP (25 μM final concentration). Final volume of the reaction was 10 μL. Phosphorylation of the peptide was allowed to proceed for 45′ at room temperature. To quench the reaction and detect the phosphorylated product, 2 nM of a Europium-anti-phosphotyrosine antibody (Perkin Elmer #AD0161) and 70 nM SA-APC (Perkin-Elmer #CR130-100) were added together in 15 mM Tris pH 7.5, 40 mM EDTA, 0.01% tween 20. Final volume of the quenching solution was 10 μL. The resulting HTRF signal was measured after 30 minutes on an EnVision (Perkin-Elmer) reader using a time-resolved fluorescence protocol.
row,SMILES,IC50 [nM]
1,"CCOC(=O)CCc1ccnc(-c2cc(C)cc(Nc3nccc(C)n3)c2)c1 [Example 2.33, ethyl 3-(2-{3-methyl-5-[(4-methylpyrimidin-2-yl)amino]phenyl}pyridin-4-yl)propanoate]",100 to 1000
2,"Cc1cc(Nc2nccc(C)n2)cc(-c2ccc(CCC(=O)O)cn2)c1 [Example 2.34, 3-(6-{3-methyl-5-[(4-methylpyrimidin-2-yl)amino]phenyl}pyridin-3-yl)propanoic acid]",100 to 1000
3,"Cc1cc(Nc2nccc(C)n2)cc(-c2cccc(CCC(=O)O)n2)c1 [Example 2.35, 3-(6-{3-methyl-5-[(4-methylpyrimidin-2-yl)amino]phenyl}pyridin-2-yl)propanoic acid]",100 to 1000
4,"CCOC(=O)CCc1ccc(-c2cc(C)cc(Nc3nccc(C)n3)c2)nc1 [Example 2.36, ethyl 3-(6-{3-methyl-5-[(4-methylpyrimidin-2-yl)amino]phenyl}pyridin-3-yl)propanoate]",1000 to 10000
5,"CCOC(=O)CCc1ccc(-c2cc(C)cc(Nc3nccc(C4CC4)n3)c2)nc1 [Example 2.37, ethyl 3-(6-{3-[(4-cyclopropylpyrimidin-2-yl)amino]-5-methylphenyl}pyridin-3-yl)propanoate]",100 to 1000
6,"CCOC(=O)CCc1cccc(-c2cc(C)cc(Nc3nccc(C4CC4)n3)c2)n1 [Example 2.38, ethyl 3-(6-{3-[(4-cyclopropylpyrimidin-2-yl)amino]-5-methylphenyl}pyridin-2-yl)propanoate]",100 to 1000
7,"CCOC(=O)CCc1ccnc(-c2cc(C)cc(Nc3nccc(C4CC4)n3)c2)c1 [Example 2.39, ethyl 3-(2-{3-[(4-cyclopropylpyrimidin-2-yl)amino]-5-methylphenyl}pyridin-4-yl)propanoate]",100 to 1000
8,"Cc1cc(Nc2nccc(C3CC3)n2)cc(-c2ccc(CCC(=O)O)cn2)c1 [Example 2.40, 3-(6-{3-[(4-cyclopropylpyrimidin-2-yl)amino]-5-methylphenyl}pyridin-3-yl)propanoic acid]",< 100
9,"COc1ccc(-c2cccc(Nc3nccc(C(F)(F)F)n3)c2)cn1 [Example 2.41, N-[3-(6-methoxypyridin-3-yl)phenyl]-4-(trifluoromethyl)pyrimidin-2-amine]",100 to 1000
10,"OC(c1ccccc1)c1ccc(-c2cccc(Nc3nccc(C(F)(F)F)n3)c2)cn1 (stereo not drawn) [Example 2.42, phenyl[5-(3-{[4-(trifluoromethyl)pyrimidin-2-yl]amino}phenyl)pyridin-2-yl]methanol]",100 to 1000
11,"Oc1ccc(-c2cccc(Nc3nccc(C(F)(F)F)n3)c2)cn1 [Example 2.43, 5-(3-{[4-(trifluoromethyl)pyrimidin-2-yl]amino}phenyl)pyridin-2-ol]",100 to 1000
12,"O=c1[nH]c2cc(-c3cccc(Nc4nccc(C(F)(F)F)n4)c3)cnc2[nH]1 [Example 2.44, 6-(3-{[4-(trifluoromethyl)pyrimidin-2-yl]amino}phenyl)-1,3-dihydro-2H-imidazo[4,5-b]pyridin-2-one]",< 100
13,"Cc1cc(Nc2nccc(C(F)(F)F)n2)cc(-c2cccnc2F)c1 [Example 2.45, N-[3-(2-fluoropyridin-3-yl)-5-methylphenyl]-4-(trifluoromethyl)pyrimidin-2-amine]",< 100
14,"Cc1cc(Nc2nccc(C(F)(F)F)n2)cc(-c2ccc(C#N)nc2)c1 [Example 2.46, 5-(3-methyl-5-{[4-(trifluoromethyl)pyrimidin-2-yl]amino}phenyl)pyridine-2-carbonitrile]",< 100
15,"Cc1cc(Nc2nccc(C(F)(F)F)n2)cc(-c2cnc3c(c2)CCN3)c1 [Example 2.47, N-[3-(2,3-dihydro-1H-pyrrolo[2,3-b]pyridin-5-yl)-5-methylphenyl]-4-(trifluoromethyl)pyrimidin-2-amine]",< 100
16,"CC(=O)c1cncc(-c2cc(C)cc(Nc3nccc(C(F)(F)F)n3)c2)c1 [Example 2.48, 1-[5-(3-methyl-5-{[4-(trifluoromethyl)pyrimidin-2-yl]amino}phenyl)pyridin-3-yl]ethanone]",< 100
17,"CNCc1ccc(-c2cc(C)cc(Nc3nccc(C(F)(F)F)n3)c2)cn1 [Example 2.49, N-(3-methyl-5-{6-[(methylamino)methyl]pyridin-3-yl}phenyl)-4-(trifluoromethyl)pyrimidin-2-amine]",< 100
18,"Cc1cc(Nc2nccc(C(F)(F)F)n2)cc(-c2cnc(O)c(N)c2C)c1 [Example 2.51, 3-amino-4-methyl-5-(3-methyl-5-{[4-(trifluoromethyl)pyrimidin-2-yl]amino}phenyl)pyridin-2-ol]",100 to 1000

row,SMILES,IC50 [nM]
1,"Cc1cc(Nc2nccc(C(F)(F)F)n2)cc(-c2cnc3c(c2)OCCN3)c1 [Example 2.52, N-[3-(3,4-dihydro-2H-pyrido[3,2-b][1,4]oxazin-7-yl)-5-methylphenyl]-4-(trifluoromethyl)pyrimidin-2-amine]",< 100
2,"COC(=O)c1cncc(-c2cc(C)cc(Nc3nccc(C(F)(F)F)n3)c2)c1 [Example 2.53, methyl 5-(3-methyl-5-{[4-(trifluoromethyl)pyrimidin-2-yl]amino}phenyl)pyridine-3-carboxylate]",100 to 1000
3,"Cc1cc(Nc2nccc(C(F)(F)F)n2)cc(-c2cncc(C(F)(F)F)c2)c1 [Example 2.54, N-{3-methyl-5-[5-(trifluoromethyl)pyridin-3-yl]phenyl}-4-(trifluoromethyl)pyrimidin-2-amine]",100 to 1000
4,"Cc1cc(Nc2nccc(C(F)(F)F)n2)cc(-c2cnc3c(c2)OCCN3C)c1 [Example 2.55, N-[3-methyl-5-(4-methyl-3,4-dihydro-2H-pyrido[3,2-b][1,4]oxazin-7-yl)phenyl]-4-(trifluoromethyl)pyrimidin-2-amine]",< 100
5,"Cc1cc(Nc2nccc(C(F)(F)F)n2)cc(-c2cncc(C#N)c2)c1 [Example 2.56, 5-(3-methyl-5-{[4-(trifluoromethyl)pyrimidin-2-yl]amino}phenyl)pyridine-3-carbonitrile]",< 100
6,"Cc1cc(Nc2nccc(C(F)(F)F)n2)cc(-c2cccnc2)c1 [Example 2.57, N-(3-methyl-5-pyridin-3-ylphenyl)-4-(trifluoromethyl)pyrimidin-2-amine]",< 100
7,"COc1cncc(-c2cc(C)cc(Nc3nccc(C(F)(F)F)n3)c2)c1 [Example 2.58, N-[3-(5-methoxypyridin-3-yl)-5-methylphenyl]-4-(trifluoromethyl)pyrimidin-2-amine]",< 100
8,"Cc1cc(Nc2nccc(C(F)(F)F)n2)cc(-c2ccc(N3CCCNCC3)nc2)c1 [Example 2.59, N-{3-[6-(1,4-diazepan-1-yl)pyridin-3-yl]-5-methylphenyl}-4-(trifluoromethyl)pyrimidin-2-amine]",< 100
9,"Cc1cc(Nc2nccc(C(F)(F)F)n2)cc(-c2ccc(OC3CCOCC3)nc2)c1 [Example 2.61, N-{3-methyl-5-[6-(tetrahydro-2H-pyran-4-yloxy)pyridin-3-yl]phenyl}-4-(trifluoromethyl)pyrimidin-2-amine]",100 to 1000
10,"Cc1cc(Nc2nccc(C(F)(F)F)n2)cc(-c2ccc(NS(=O)(=O)N3CCCCC3)nc2)c1 [Example 2.62, N-[5-(3-methyl-5-{[4-(trifluoromethyl)pyrimidin-2-yl]amino}phenyl)pyridin-2-yl]piperidine-1-sulfonamide]",100 to 1000
11,"Cc1cc(Nc2nccc(C(F)(F)F)n2)cc(-c2ccc(CN)nc2)c1 [Example 2.63, N-{3-[6-(aminomethyl)pyridin-3-yl]-5-methylphenyl}-4-(trifluoromethyl)pyrimidin-2-amine]",< 100
12,"COC(=O)c1ccc(-c2cc(C)cc(Nc3nccc(C(F)(F)F)n3)c2)cn1 [Example 2.65, methyl 5-(3-methyl-5-{[4-(trifluoromethyl)pyrimidin-2-yl]amino}phenyl)pyridine-2-carboxylate]",100 to 1000
13,"Cc1cc(Nc2nccc(C(F)(F)F)n2)cc(-c2cncc(CO)c2)c1 [Example 2.66, [5-(3-methyl-5-{[4-(trifluoromethyl)pyrimidin-2-yl]amino}phenyl)pyridin-3-yl]methanol]",< 100
14,"CCOC(=O)c1cncc(-c2cc(C)cc(Nc3nccc(C(F)(F)F)n3)c2)c1 [Example 2.68, ethyl 5-(3-methyl-5-{[4-(trifluoromethyl)pyrimidin-2-yl]amino}phenyl)pyridine-3-carboxylate]",< 100
15,"Cc1cc(Nc2nccc(C(F)(F)F)n2)cc(-c2cncc(C(=O)O)c2)c1 [Example 2.69, 5-(3-methyl-5-{[4-(trifluoromethyl)pyrimidin-2-yl]amino}phenyl)pyridine-3-carboxylic acid]",< 100
16,"Cc1cc(Nc2nccc(C(F)(F)F)n2)cc(-c2ccc(N3CCCNC(=O)C3)nc2)c1 [Example 2.70, 4-[5-(3-methyl-5-{[4-(trifluoromethyl)pyrimidin-2-yl]amino}phenyl)pyridin-2-yl]-1,4-diazepan-2-one]",< 100
17,"Cc1cc(Nc2nccc(C(F)(F)F)n2)cc(-c2ccc(C(=O)NC3CC3)nc2)c1 [Example 2.71, N-cyclopropyl-5-(3-methyl-5-{[4-(trifluoromethyl)pyrimidin-2-yl]amino}phenyl)pyridine-2-carboxamide]",100 to 1000
18,"Cc1cc(Nc2nccc(C(F)(F)F)n2)cc(-c2cnc(N(C)C)c(C(=O)O)c2)c1 [Example 2.72, 2-(dimethylamino)-5-(3-methyl-5-{[4-(trifluoromethyl)pyrimidin-2-yl]amino}phenyl)pyridine-3-carboxylic acid]",< 100
